One may read the melting point as the temperature of the solid-liquid transition.

Molecules are shown by their SMILES. Structures can show the parent of a compound that is named as a salt.

With `CCCCCc1cc2c(nc(O)n2CCCNC(C)=O)c(N)n1` [Example 10, N-[3-(4-Amino-2-hydroxy-6-pentyl-1H-imidazo[4,5-c]pyridin-1-yl)propyl]acetamide], the melting point lay within 189 to 191 °C. The compound `CCCCCc1cc2c(nc(O)n2CC2CCN(C(C)=O)CC2)c(N)n1` [Example 13, 1-[(1-Acetylpiperidin-4-yl)methyl]-4-amino-6-pentyl-1H-imidazo[4,5-c]pyridin-2-ol] had a melting point of 228 to 231 °C.

`CCCCCc1cc2c(nc(O)n2Cc2cccnc2)c(N)n1` [Example 5, 4-Amino-6-pentyl-1-(pyridin-3-ylmethyl)-1H-imidazo[4,5-c]pyridin-2-ol] registered a melting point of 243 to 245 °C. On to `CCCCCc1cc2c(nc(O)n2Cc2ccccc2)c(N)n1` (as salt: salt) [Example 1, 4-Amino-1-benzyl-6-pentyl-1H-imidazo[4,5-c]pyridin-2-ol], for which the melting point was 260 to 262 °C. In turn, `CCCCCc1cc2c(nc(O)n2CCCCS(C)(=O)=O)c(N)n1` [Example 16, 4-Amino-1-[4-(methylsulfonyl)butyl]-6-pentyl-1H-imidazo[4,5-c]pyridin-2-ol] showed a melting point of 188 to 189 °C. Take `CCCCCc1cc2c(nc(O)n2CC2CCNCC2)c(N)n1` [Example 11, 4-Amino-6-pentyl-1-(piperidin-4-ylmethyl)-1H-imidazo[4,5-c]pyridin-2-ol]: the melting point lay in the range of 246 to 249 °C. Then `CCCCCc1cc2c(nc(O)n2CC2CCN(C(=O)C3CC3)CC2)c(N)n1` [Example 15, 4-Amino-1-{[1-(cyclopropylcarbonyl)piperidin-4-yl]methyl}-6-pentyl-1H-imidazo[4,5-c]pyridin-2-ol], with 205 to 207 °C; and `CCCCCc1cc2c(nc(O)n2CC(C)(C)O)c(N)n1` [Example 3, 4-Amino-1-(2-hydroxy-2-methylpropyl)-6-pentyl-1H-imidazo[4,5-c]pyridin-2-ol], with 240 to 243 °C; and `CCCCCc1cc2c(nc(O)n2CC2CCN(S(=O)(=O)CC)CC2)c(N)n1` [Example 14, 4-Amino-1-{[1-(ethylsulfonyl)piperidin-4-yl]methyl}-6-pentyl-1H-imidazo[4,5-c]pyridin-2-ol], with 222 to 225 °C. As to `CCCCCc1cc2c(nc(O)n2[C@H](C)c2ccccc2)c(N)n1` [Example 22, 4-Amino-6-pentyl-1-[(1R)-1-phenylethyl]-1H-imidazo[4,5-c]pyridin-2-ol], the melting point was in the range of 147.1 to 148 °C. The compound `Cc1nc(N)c2nc(O)n(Cc3cc(-c4ccc(F)cc4)no3)c2c1C` [Example 19, 4-Amino-1-{[3-(4-fluorophenyl)isoxazol-5-yl]methyl}-6,7-dimethyl-1H-imidazo[4,5-c]pyridin-2-ol] yielded a melting point of 250 °C.

`CCCCCc1cc2c(nc(O)n2CCc2ccccc2)c(N)n1` [Example 2, 4-Amino-6-pentyl-1-(2-phenylethyl)-1H-imidazo[4,5-c]pyridin-2-ol]: the melting point lay within 238 to 240 °C.

For the compound `CCCCCc1cc2c(nc(O)n2[C@@H](C)c2ccccc2)c(N)n1` [Example 21, 4-Amino-6-pentyl-1-[(1S)-1-phenylethyl]-1H-imidazo[4,5-c]pyridin-2-ol], the melting point lay within 146.7 to 147.7 °C.

`CCOCCc1cc2c(nc(O)n2CCCCS(C)(=O)=O)c(N)n1` [Example 18, 4-Amino-6-(2-ethoxyethyl)-1-[4-(methylsulfonyl)butyl]-1H-imidazo[4,5-c]pyridin-2-ol]: the melting point lay within 203 to 206 °C. Regarding `CCCCCc1cc2c(nc(O)n2CCCNS(C)(=O)=O)c(N)n1` [Example 8, N-[3-(4-Amino-2-hydroxy-6-pentyl-1H-imidazo[4,5-c]pyridin-1-yl)propyl]methanesulfonamide], the melting point was 174 to 176 °C. Compound `CCCCCc1cc2c(nc(O)n2CC2CCN(S(C)(=O)=O)CC2)c(N)n1` [Example 12, 4-Amino-1-{[1-(methylsulfonyl)piperidin-4-yl]methyl}-6-pentyl-1H-imidazo[4,5-c]pyridin-2-ol] returned a melting point of 228 to 231 °C. `CCCCOc1cc2c(nc(O)n2Cc2ccccc2)c(N)n1` [Example 23, 4-amino-1-benzyl-6-butoxy-1H-imidazo[4,5-c]pyridin-2-ol] yielded a melting point of 205 to 208 °C. In the case of `Cc1cc(Cn2c(O)nc3c(N)nc(C)c(C)c32)on1` [Example 20, 4-Amino-6,7-dimethyl-1-[(3-methylisoxazol-5-yl)methyl]-1H-imidazo[4,5-c]pyridin-2-ol], the melting point is greater than 300 °C.

In turn, `CCCCCc1cc2c(nc(O)n2CCOCCCc2nccs2)c(N)n1` [Example 7] yielded a melting point of 177 to 178 °C.

`CCCCCc1cc2c(nc(O)n2CC2CCOCC2)c(N)n1` [Example 4, 4-Amino-6-pentyl-1-(tetrahydro-2H-pyran-4-ylmethyl)-1H-imidazo[4,5-c]pyridin-2-ol] came in with a melting point greater than 250 °C. `CCCCCc1cc2c(nc(O)n2CCS(C)(=O)=O)c(N)n1` [Example 17, 4-Amino-1-[2-(methylsulfonyl)ethyl]-6-pentyl-1H-imidazo[4,5-c]pyridin-2-ol] gave a melting point of 223 to 225 °C.

For the origin of these results see patent US20100152230A1, “HYDROXY SUBSTITUTED 1H-IMIDAZOPYRIDINES AND METHODS” (Pfizer Inc., priority 2005, published 2010).
